# Measured values reported in US20220296674A1, “CELL PENETRATING PEPTIDES FOR INTRACELLULAR DELIVERY OF MOLECULES” (INSERM (INSTITUT NATIONAL DE LA SANTÉ ET DE LA RECHERCHE …, priority 2019, published 2022).
# Where no end group is shown, it is not given here.
# How the values were obtained:
# various cell lines [1] = experiment: Lactate dehydrogenase (LDH) release assay of the shuttle peptides; assay type: cell-based
# Description: (§1) FIG. 4 Lack of toxicity and immunogenicity of hAP10 and hAP10DR. (A) The indicated cells were exposed to increasing concentrations of hAP10 or hAP10DR for 20 h. Viability was then assessed by an MTT assay. Data are means±s.e.m. (n=3). (B) Necrotic cell death was monitored by lactate dehydrogenase (LDH) release from cells into the culture medium. The obtained values were normalized to those of the maximum LDH released (completely lysed) control. Data are means±s.e.m. (n=3). […] Mice red blood cells were incubated with 30 μM of hAP10 or hAP10DR. Released hemoglobin was detected by densitometry at 540 nm. Hemoglobin release by cells treated with 1% Triton X-100 was used as 100% lysis control. (D) Levels of IL-6 secretion from RAW 264.7 cells exposed to 10 μM of hAP10 or hAP10DR or LPS (1 μg/ml) for 24 h. Data are means±s.e.m. (n=3).
# (§2) Cells survival was assessed with the CellTiter 96® Aqueous One Solution Cell Proliferation Assay kit (Promega, Madison, Wis.). Necrotic plasma membrane permeabilization was assessed by lactate dehydrogenase (LDH) leakage in the culture medium with the CytoTox 96® Non-Radioactive Cytotoxicity Assay kit (Promega, Madison, Wis.).
# [2] = test system: non-malignant (CD3+CD4+TCR-Vβ−) CD4+ T-cells; assay type: cell-based, human
# Description: (§3) FIG. 7 RT33 and RT33DR specifically induce primary Sézary cells death. Sézary patients' PBMC were incubated with increasing concentrations of the indicated peptides for 4 h at 37° C. Cells were then analyzed by flow cytometry following labeling with anti-TCRVβ-FITC, -CD4-PE, -CD3-PE-Cy7 mAbs and 7-AAD. Data are shown as the means±s.e.m. of the percentage of 7-AAD+apoptotic cells within the following populations: malignant (CD3^+CD4^+TCR-V β^+) and non-malignant (CD3^+CD4^+TCR-Vβ^−) CD4+T-cells and non T-cells (CD3^−), derived from three different patients.
# (§4) PBMC exposed or not to RT33 or RT33DR were processed for flow cytometry to assess cell death. Cells were labelled with a mix of anti-TCR-Vβ-FITC, -CD3-PE and -CD4-PECy7 mAbs (Beckman Coulter). Detection of apoptotic cells was performed using 7AAD (BD Biosciences). Cells were analyzed on a CytoFlex cytometer (Beckman Coulter) and data treated with FlowJo software.
# non T-cells (CD3−) = assay type: cell-based, human
# Description: as §3, §4
# Mice red blood cells = experiment: Hemolysis assay; assay type: cell-based; details: 30 μM, 37° C., 1 h; 1% Triton X-100 = 100% lysis
# Description: as §1
# Mice blood was centrifuged at 2000 rpm for 10 min. Red blood cell pellets were washed five times with PBS and resuspended in normal saline. For each assay, 1×10^7 red blood cells were incubated with or without peptide (30 μM) in normal saline at 37° C. for 1 h. The samples were then centrifuged and the absorbance of the supernatant was measured at 540 nm. To determine the percentage of lysis, absorbance readings were normalized to lysis with 1% Triton X-100.
# [3] = test system: RAW 264.7 murine macrophages; experiment: Immunogenicity assay: IL-6 secretion (ELISA); assay type: cell-based; details: 10 μM peptide or LPS 1 μg/ml, 24 h
# Description: as §1
# RAW 264.7 murine macrophages were seeded (1×10^4 cells/cm^2) in a 24-well plate and allowed to grow for 24 h. Then, cells were left untreated or exposed to the hAP10 or hAP10DR peptides (10 μM) or to LPS (E. Coli O111:b4, 1 μg/ml) as a positive control for 24 h. Levels of IL-6 in the supernatants were analyzed using an Mouse IL-6 Quantikine ELISA Kit (R&D system).
# U2OS cells = experiment: Live cell fluorescence microscopy of FITC-labelled peptides; assay type: cell-based; details: 5 μM FITC-labelled peptide, 1 h
# Description: FIG. 2 Cellular uptake of hAP10 and hAP10DR. (A) HUT78 cells were incubated with 5 μM of FITC-labelled hAP10 and hAP10DR or penetratin and TAT as controls for 1 h in complete medium. Cells were then washed with PBS, incubated in trypsin-EDTA solution (0.01% trypsin) at 37° C. for 10 min, resuspended in PBS and subjected to flow cytometry (right). Left: Bar diagram representing the uptake of the FITC-labelled peptides as mean cellular fluorescence from the flow cytometry analysis of live cells positive for FITC. Data are means±s.e.m. (n=3). (B) Fluorescence quantification of FITC-labelled hAP10 and hAP10DR uptaken in human B lymphocytes. Cells were incubated with 5 μM of FITC-labelled hAP10 and hAP10DR or penetratin and TAT as controls for 1 h in complete medium, washed with PBS and the fluorescence of the cell lysis measured as described in Material and Methods. Data are means±s.e.m. (n=3). (C) Intracellular distribution of FITC-labelled hAP10 and hAP10DR in U2OS cells. U2OS cells grown on coverslips were incubated with 5 μM of FITC-labelled hAP10 and hAP10DR or penetratin and TAT as controls for 1 h in complete medium, washed trice with PBS and live cells were imaged using fluorescence microscopy. […] Following incubation, the cells were washed three times in PBS and imaged using a Zeiss Axiovert 200 M inverted fluorescence microscope.
# various cell lines [4] = assay type: cell-based; details: data not shown
# Description: as §1, §2
# HaCat = experiment: Cell viability (MTT) after RT33 / RT33DR; assay type: cell-based; details: increasing concentrations, 20 h
# Description: (§5) FIG. 6 RT33 and RT33DR induces cancer cells, but not normal cells, death. (A) Amino-acid sequence of RT33 and RT3DR. hAP10 and hAP10DR sequences are in bold. (B) The indicated cells were exposed to increasing concentrations of RT33 or RT3DR for 20 h. Viability was then assessed by an MTT assay. Data are means±s.e.m. (n=3). (C) HUT78 cells were exposed to increasing concentrations of RT33 or RT3DR for 20 h in the presence and absence of 50 μM zVAD-fmk or 50 μM Necrostatin-1 (Nec-1). Viability was then assessed by an MTT assay. Data are means±s.e.m. (n=3). (D) HUT78 cells were exposed to 20 μM of RT33 or RT33DR for 3 h. Necrotic cell death was monitored by lactate dehydrogenase (LDH) as in FIG. 4 (B). Data are means±s.e.m. (n=3). (E) Ultrastructural analysis of HUT78 cells treated with 15 μM of hAP10 or hAP10DR for 1 h. (F) Structural prediction of RT33 and RT33DR. The segments corresponding to the hAP10 and hAP10DR moieties are in light grey. (G) Cancerous C8161 cells or non-cancerous MRC-5 cells were exposed to FITC-labelled RT33 or RT33DR for 1 h. Cels were then examined by fluorescence microscopy.
# as §2
# MRC-5 = experiment: Cell viability (MTT) after RT33 / RT33DR; assay type: cell-based; details: increasing concentrations, 20 h
# Description: as §5, §2
# HUT78 = experiment: Cell viability (MTT) after RT33 / RT33DR; assay type: cell-based; details: 50 μM zVAD-fmk, 20 h
# Description: as §5, §2
# [5] = test system: HUT78 Sézary cell line xenograft tumors; experiment: Xenograft tumor model of Sézary syndrome; assay type: in vivo; details: systemic administration, single agent
# Description: FIG. 8 RT33 and RT33DR inhibit tumor growth in vivo in a mouse model for the Sézary syndrome. (A) Mice were engrafted subcutaneously with HUT78 Sézary cell line. Animals with preexisting tumors were treated daily with i.p. injections of RT33 or RT33DRM in normal saline (5 mg/kg) or normal saline as control. Tumors were calipered throughout the study and data were plotted as means±s.e.m. (n=7 mice per group). p<0.005 relative to control. Subsequently, tumors were excised, stripped of non-tumor tissue and tumors volumes were calculated. (B) Representative pictures of H&E staining of tumors treated with RT33, RT33DRM, or normal saline. The scale bar represents 500 μm.
# Animal experiments were approved by The University Board Ethics Committee for Experimental Animal Studies (#2303.01). Xenograft tumors were obtained by subcutaneous injection of 10^6 HUT78 cells in the right flank of 8-week-old female NOD-SCID-gamma (NSG) mice, bred and housed under pathogen-free conditions at our animal facility (IUH, Saint Louis Hospital, Paris, France). Treatment started after randomization when tumors were visible and consisted of daily intraperitoneal (i.p.) injection of normal saline or RT33 or RT33DR in normal saline (n=5 per group). Tumor volume was measured every other day and calculated as: long axis X short axis^2 ×0.5. […]
substance,measurement,setting,value
"RSRSRRRRRK [hAP10DR, RSRSRRRRRK]",LDH activity release in the culture medium (membrane disturbance),various cell lines [1],did not induce membrane disturbance
same,cell viability / cell death of non-tumoral CD4+ T-cells,[2],did not induce cell death
same,cell viability / cell death of non-T cell population,non T-cells (CD3−),did not induce cell death
same,hemolytic activity,Mice red blood cells,neither hAP10 nor hAP10DR exhibited hemolytic activity
same,secreted IL-6,[3],no significant IL-6 release was detected
TAT,cellular distribution of fluorescence,U2OS cells,both a diffuse and punctuate fluorescence distribution
"AAC-11 specific portion: the AAC-11 specific portion (residues 377-399) alone, without shuttle (LQYFARGLQVYIRQLRLALQGKT; UniProt Q9BZZ5 377-399, looked up, fragment)","cell viability, AAC-11 portion without shuttle",various cell lines [4],nor the AAC-11 specific portion alone (not shown) decreased cell viability
RSRSRRRRRKLQYFARGLQVYIRQLRLALQGKT [RT33DR],cell viability of normal cells,HaCat,sparing the normal cells tested
same,cell viability of normal cells,MRC-5,sparing the normal cells tested
same,cytotoxicity in presence of pan-caspase inhibitor zVAD-fmk,HUT78,did not block
same,tolerability in vivo,[5],well tolerated in vivo
same,cell viability / cell death of non-tumoral CD4+ T-cells,[2],neither peptide decreased cell viability
same,cell viability / cell death of non-T cell population,non T-cells (CD3−),neither peptide decreased cell viability
"RSRSRDRRRK [hAP10, RSRSRDRRRK]",LDH activity release in the culture medium (membrane disturbance),various cell lines [1],did not induce membrane disturbance
same,cell viability / cell death of non-tumoral CD4+ T-cells,[2],did not induce cell death
same,cell viability / cell death of non-T cell population,non T-cells (CD3−),did not induce cell death
same,hemolytic activity,Mice red blood cells,neither hAP10 nor hAP10DR exhibited hemolytic activity
same,secreted IL-6,[3],no significant IL-6 release was detected
RSRSRDRRRKLQYFARGLQVYIRQLRLALQGKT [RT33],cell viability of normal cells,HaCat,sparing the normal cells tested
same,cell viability of normal cells,MRC-5,sparing the normal cells tested
same,cytotoxicity in presence of pan-caspase inhibitor zVAD-fmk,HUT78,did not block
same,tolerability in vivo,[5],well tolerated in vivo
same,cell viability / cell death of non-tumoral CD4+ T-cells,[2],neither peptide decreased cell viability
same,cell viability / cell death of non-T cell population,non T-cells (CD3−),neither peptide decreased cell viability
"lipopolysaccharide [LPS, reference compound]",secreted IL-6,[3],elicited a potent cytokine response
